# Like-named read-outs stand apart in the source and are kept apart here.
# Key:
# A-549 (lung cancer) = experiment: In vitro cytotoxic activity MTT assay, A-549; format: cell-based, human
# Experimental: (§1) The cytotoxicity activity of the compounds of the current subject matter was assessed against three cancer cell lines such as A-549 (lung cancer), MCF-7 (breast cancer) and HL-60 (leukemia) cancer cells.
# (§2) Compounds 1-15 were screened for their in vitro cytotoxic behavior utilizing a 3-(4,5-dimethyl-thiazol-2-yl)-2,5-diphenyltetrazolium bromide (MTT) assay against selected cancer human cell lines consisting of MCF-7 (human breast cancer), A-549 (lung cancer) and HL-60 (leukemia) (T. Mosmann, J. Immunol. Meth., 1983, 65, 55-63). The cells were cultured at 37° C. in RMPI1640 medium supplemented with 10% fetal bovine serum, 50 IU/mL penicillin, and 50 μg/mL streptomycin in a 5% CO2 incubator. All cells were sub-cultured 3 times/week by trypsinisation. Viable cells were seeded and allowed to adhere for 12 h before a test drug was added in 96-well plates at an initial density of 1.0×10^5 cells/mL. Tumour cell lines were separately exposed to various concentrations of the tested compounds followed by incubation at a temperature of 37° C. during 24 h inside a medium of fresh RMPI 1640. Cells were subsequently incubated at 37° C. using MTT at 0.5 mg/mL during 4 h. After removal of supernatant, formazan crystals were dissolved in isopropanol and the optical density was measured at 570 nm. Etopside and Cisplatin were used as a positive control.
# [1] = tested on: MCF-7 (human breast cancer); experiment: In vitro cytotoxic activity MTT assay, MCF-7; format: cell-based
# Experimental: as §1, §2
# HL-60 (leukemia) = experiment: In vitro cytotoxic activity MTT assay, HL-60; format: cell-based, human
# Experimental: as §1, §2
# [2] = A-549 lung cancer cells, MTT, 24 h incubation, read-out: Anti-proliferative activity: IC50 (μM) A-549
# [3] = MCF-7 breast cancer cells, MTT, 24 h incubation, read-out: Anti-proliferative activity: IC50 (μM) MCF-7
# [4] = HL-60 leukemia cells, MTT, 24 h incubation, read-out: Anti-proliferative activity: IC50 (μM) HL-60
# [5] = Homo sapiens, A549, A-549 lung cancer cells, MTT, 24 h incubation, read-out: Anti-proliferative activity: IC50 (μM) A-549
# [6] = Homo sapiens, MCF7, MCF-7 breast cancer cells, MTT, 24 h incubation, read-out: Anti-proliferative activity: IC50 (μM) MCF-7
# [7] = Homo sapiens, HL-60 leukemia cells, MTT, 24 h incubation, read-out: Anti-proliferative activity: IC50 (μM) HL-60
Structure (SMILES),IC50 (A-549 (lung cancer); [2]),"IC50 [1, 3]",IC50 (HL-60 (leukemia); [4]),IC50 (A-549 (lung cancer); [5]),"IC50 [1, 6]",IC50 (HL-60 (leukemia); [7]),"IC50 (A-549 (lung cancer); Homo sapiens, A549, A-549 cancer cells, read-out: IC50 (concentration of cytotoxic agent which inhibits proliferation of the treated cells by 50%) against A-549)","IC50 ([1]; Homo sapiens, MCF7, MCF-7 cancer cells, read-out: IC50 (concentration of cytotoxic agent which inhibits proliferation of the treated cells by 50%) against MCF-7)","IC50 (HL-60 (leukemia); Homo sapiens, HL-60 cancer cells, read-out: IC50 (concentration of cytotoxic agent which inhibits proliferation of the treated cells by 50%) against HL-60)"
"N.N.[Cl][Pt][Cl] [Cisplatin, reference compound]",9.25 µM,15.9 µM,1.16 µM,,,,,,
"COc1cc([C@@H]2c3cc4c(cc3[C@@H](O[C@@H]3O[C@@H]5CO[C@@H](C)O[C@H]5[C@H](O)[C@H]3O)[C@H]3COC(=O)[C@H]23)OCO4)cc(OC)c1O [Etoposide, reference compound]",11.9 µM,32.8 µM,0.31 µM,,,,,,
"COc1ccc(C2C3=C(COC3=O)Nc3nc4ccccc4n32)cc1 (stereo not drawn) [Example 1, 11-(4-methoxyphenyl)-4,11-dihydro-1H,3H-benzo[4,5]imidazo[1,2-a]furo[3,4-d]pyrimidin-1-one]",,,,0.092 µM,0.126 µM,0.082 µM,,,
"COc1ccc(C2C3=C(COC3=O)Nc3nc4ccccc4n32)cc1OC (stereo not drawn) [Example 2, 11-(3,4-dimethoxyphenyl)-4,11-dihydro-1H,3H-benzo[4,5]imidazo[1,2-a]furo[3,4-d]pyrimidin-1-one]",,,,0.12 µM,0.104 µM,0.096 µM,,,
"COc1cc(C2C3=C(COC3=O)Nc3nc4ccccc4n32)cc(OC)c1OC (stereo not drawn) [Example 3, 11-(3,4,5-trimethoxyphenyl)-4,11-dihydro-1H,3H-benzo[4,5]imidazo[1,2-a]furo[3,4-d]pyrimidin-1-one]",,,,0.081 µM,0.115 µM,0.128 µM,,,
"O=C1OCC2=C1C(c1ccc3c(c1)OCO3)n1c(nc3ccccc31)N2 (stereo not drawn) [Example 4, 11-(benzo[d][1,3]dioxol-5-yl)-4,11-dihydro-1H,3H-benzo[4,5]imidazo[1,2-a]furo[3,4-d]pyrimidin-1-one]",,,,0.104 µM,0.097 µM,0.084 µM,,,
"O=C1OCC2=C1C(c1ccc(O)c(O)c1)n1c(nc3ccccc31)N2 (stereo not drawn) [Example 5, 11-(3,4-dihydroxyphenyl)-4,11-dihydro-1H,3H-benzo[4,5]imidazo[1,2-a]furo[3,4-d]pyrimidin-1-one]",,,,0.151 µM,0.154 µM,0.178 µM,,,
"COc1cc(C2C3=C(COC3=O)Nc3nc4ccccc4n32)ccc1O (stereo not drawn) [Example 6, 11-(4-hydroxy-3-methoxyphenyl)-4,11-dihydro-1H,3H-benzo[4,5]imidazo[1,2-a]furo[3,4-d]pyrimidin-1-one]",,,,0.095 µM,0.105 µM,0.133 µM,,,
"Cc1ccc(C2C3=C(COC3=O)Nc3nc4ccccc4n32)cc1 (stereo not drawn) [Example 7, 11-(p-tolyl)-4,11-dihydro-1H,3H-benzo[4,5]imidazo[1,2-a]furo[3,4-d]pyrimidin-1-one]",,,,0.067 µM,0.069 µM,0.072 µM,,,
"CN(C)c1ccc(C2C3=C(COC3=O)Nc3nc4ccccc4n32)cc1 (stereo not drawn) [Example 8, 11-(4-(dimethylamino)phenyl)-4,11-dihydro-1H,3H-benzo[4,5]imidazo[1,2-a]furo[3,4-d]pyrimidin-1-one]",,,,0.092 µM,0.087 µM,0.129 µM,,,
"Nc1ccc(C2C3=C(COC3=O)Nc3nc4ccccc4n32)cc1 (stereo not drawn) [Example 9, 11-(4-aminophenyl)-4,11-dihydro-1H,3H-benzo[4,5]imidazo[1,2-a]furo[3,4-d]pyrimidin-1-one]",,,,0.123 µM,0.162 µM,0.143 µM,,,
"CC(=O)Nc1ccc(C2C3=C(COC3=O)Nc3nc4ccccc4n32)cc1 (stereo not drawn) [Example 10, N-(4-(1-oxo-4,11-dihydro-1H,3H-benzo[4,5]imidazo[1,2-a]furo[3,4-d]pyrimidin-11-yl)phenyl)acetamide]",,,,0.211 µM,0.374 µM,0.281 µM,,,
"COc1cc(C2C3=C(CNC3=O)Nc3nc4ccccc4n32)cc(OC)c1OC (stereo not drawn) [Example 11, 11-(3,4,5-trimethoxyphenyl)-2,3,4,11-tetrahydro-1H-benzo[4,5]imidazo[1,2-a]pyrrolo[3,4-d]pyrimidin-1-one]",,,,0.086 µM,0.125 µM,0.104 µM,,,
"COc1cc(C2C3=C(CSC3=O)Nc3nc4ccccc4n32)cc(OC)c1OC (stereo not drawn) [Example 12, 11-(3,4,5-trimethoxyphenyl)-4,11-dihydro-1H,3H-benzo[4,5]imidazo[1,2-a]thieno[3,4-d]pyrimidin-1-one]",,,,0.075 µM,0.111 µM,0.085 µM,,,
"O=C1OCC2=C1C(c1ccc(F)cc1)n1c(nc3ccccc31)N2 (stereo not drawn) [Example 13, 11-(4-fluorophenyl)-4,11-dihydro-1H,3H-benzo[4,5]imidazo[1,2-a]furo[3,4-d]pyrimidin-1-one]",,,,0.071 µM,0.045 µM,0.061 µM,0.071 µM,0.045 µM,0.061 µM
"O=C1OCC2=C1C(c1ccc(Cl)cc1)n1c(nc3ccccc31)N2 (stereo not drawn) [Example 14, 11-(4-chlorophenyl)-4,11-dihydro-1H,3H-benzo[4,5]imidazo[1,2-a]furo[3,4-d]pyrimidin-1-one]",,,,0.058 µM,0.074 µM,0.069 µM,,,
"O=C1OCC2=C1C(c1ccc(Br)cc1)n1c(nc3ccccc31)N2 (stereo not drawn) [Example 15, 11-(4-bromophenyl)-4,11-dihydro-1H,3H-benzo[4,5]imidazo[1,2-a]furo[3,4-d]pyrimidin-1-one]",,,,0.105 µM,0.081 µM,0.092 µM,,,

# Source: US11952383B1, “Aza-podophyllotoxin analogues as potential anti-cancer agents” (KING FAISAL UNIVERSITY, priority 2023, dated 2024)
